Experimental data: patent US7851654B2, “Chalcone derivatives, pharmaceutically acceptable salt, method for preparation and uses thereof” (Industry-Academic Cooperation Foundation Gyeongsang …, priority 2006, dated 2010)
One block for each molecule: values may come before it.

Key:
B-16 melanoma [1] = assay: Melanin synthesis inhibitory activity in B-16 melanoma; assay type: cell-based, mice; conditions: Mus musculus, B16, DMEM with a-MSH and theophylline, read-out: IC50 melanin synthesis inhibition
Protocol: To identify the melanin synthesis inhibitory activities of the chalcone derivatives of the present invention, whitening effects were measured using B-16 melanoma. 2 ml of B-16 melanoma, derived from black mice, was added to the respective wells in concentration of 2×10^4 cells/well on a 6 well plate using DMEM with 10% FBS and cultivated under the conditions of 5% CO2 and 37° C. for twenty four hours. Media were removed after the cultivation and the DMEM used was replaced with DMEM having 10% FBS, 0.2 mM a-MSH and 2 mM theophylline. Subsequently, appropriate amounts of the chalcone compounds of Examples 2 to 6, 8, 13, 14, 17 and 18 were diluted with the same media and added thereto, respectively, to be cultivated under the conditions of 5% CO2 and 37° C. until the cells grew above 80%. The media were removed after the cultivation and the resultant compounds were washed with PBS and processed with […] to collect cell pellets. Collected pellets were moved to 1.5 ml of Eppendorf tubes to be centrifuged at […] for ten minutes. Then, the pellets in which supernatants were removed were dried in an incubator of 60° C. for twenty four hours. Subsequently, 1N NaOH was added thereto to dissolve melanins in the cells. Dissolved melanins are diluted with appropriate amounts of PBS to measure absorbance at 490 nm, thus obtaining melanin inhibitory rates via Equation 1 above (T. Mosmann, J. Immunol. Methods, 1983, 65, 55; P. R. Gorden, J. Invest. Dermatol., 1989, 92, 565). As a comparative example, the same experiment was carried out using albutin.

B-16 melanoma [2] = assay: Cytotoxicity in B-16 melanoma; assay type: cell-based, mice; conditions: melanin test not performed because of cytotoxicity
β-amylase = β-amylase inhibitory activity via analysis of reducing sugars; assay type: biochemical; conditions: 1% starch substrate, DNS reagent, same manner as α-amylase test
Protocol: (§1) α-amylase, a kind of glycosidase enzymes, was used to identify glycosidase inhibitory activities of the chalcone derivatives of the present invention. Using 1% starch as substrate, α-amylase activities were measured by measuring the amounts in that α-amylases hydrolyzed the substrates after adding DNS (1% dinitrosalicylic acid, 12% potassium sodium tartrate in 0.4 M NaOH), a color reagent (Bioorg. Med. Chem. Lett., 2002, 12, 2335-2339). 1% starch as substrate was dissolved in acetate buffer (0.05 M, pH 4.5) in test tubes. After preprocessing at 37° C. for ten minutes, the resultant solutions were quantified as 100 μl in tubes. α-amylases of 0.25 unit/ml, prepared with the acetate buffer, were quantified as 100 μl. Subsequently, the chalcone derivatives prepared in Examples 2, 5, 6, 8, 9, 10, 11 and 12 in accordance with the present invention were dissolved in 50% DMSO solvent and quantified as 50 μl, respectively. After reacting the samples quantified at 37° C. for twenty minutes, 300 μl of DNS, the color reagent, were added thereto. Next, the resultant solutions were reacted in boiled water for ten minutes and cooled to measure absorbance at 540 nm, thus obtaining amylase inhibitory rates via equation 1 above. Measured IC50 values of the chalcone derivatives prepared in Examples 2, 5, 6, 8, 9, 10, 11 and 12 for α-amylases were depicted in table 3.
β-amylase inhibitory activities were measured in the same manner as Experimental example 2 except for using β-amylases as glycosidase and the IC50 values were depicted in Table 3 above.

α-amylase = α-amylase inhibitory activity via analysis of reducing sugars; assay type: biochemical; conditions: 1% starch substrate, DNS reagent, pH 4.5, 37° C., twenty minutes
Protocol: as §1

SMILES: O=C(/C=C/c1ccc(O)cc1)c1ccc(NS(=O)(=O)c2ccccc2)cc1 [Example 3, 4′-benzenesulfonylamino-4-hydroxychalcone]
IC50 (B-16 melanoma [1]): 20.6 µM

SMILES: O=C(/C=C/c1ccc(O)cc1)c1ccc(O)cc1 [Example 18, 4′,4-dihydroxychalcone]
cytotoxicity of the compounds (B-16 melanoma [2]): ND (ND denotes the cases where the experiments on the melanin synthesis inhibitory activities in B-16 melanoma were not performed since the cytotoxicity of the compounds was shown as more than 50%)

SMILES: O=C(/C=C/c1ccc(O)c(O)c1)c1ccc(NS(=O)(=O)c2ccc(F)cc2)cc1 [Example 11, 4′-(p-fluorobenzenesulfonylamino)-3,4-dihydroxychalcone]
IC50 β-amylase (β-amylase): NI (NI denotes the cases where the inhibitory rates were below 20% measured when the concentration of the chalcone derivatives was 200 μM or means that there were no inhibitory activities for α-, or β-amylases)
IC50 α-amylase (α-amylase): NI (NI denotes the cases where the inhibitory rates were below 20% measured when the concentration of the chalcone derivatives was 200 μM or means that there were no inhibitory activities for α-, or β-amylases)

SMILES: O=C(/C=C/c1ccc(O)cc1)c1ccc(NS(=O)(=O)c2ccc([N+](=O)[O-])cc2)cc1 [Example 4, 4′-(p-nitrobenzenesulfonylamino)-4-hydroxychalcone]
cytotoxicity of the compounds (B-16 melanoma [2]): ND^a (ND denotes the cases where the experiments on the melanin synthesis inhibitory activities in B-16 melanoma were not performed since the cytotoxicity of the compounds was shown as more than 50%)

SMILES: CS(=O)(=O)Nc1ccc(C(=O)/C=C/c2ccc(O)c(O)c2)cc1 [Example 12, 4′-(methanesulfonylamino)-3,4-dihydroxychalcone]
IC50 (β-amylase): 24.8 µM
IC50 (α-amylase): 16.8 µM

SMILES: Cc1ccc(S(=O)(=O)Nc2ccc(C(=O)/C=C/c3ccc(O)cc3)cc2)cc1 [Example 2, 4′-(p-toluenesulfonylamino)-4-hydroxychalcone]
IC50 (β-amylase): 247 µM
IC50 (α-amylase): 87.8 µM
IC50 (B-16 melanoma [1]): 14.8 µM

SMILES: O=C(/C=C/c1ccc(O)cc1)c1ccc(NS(=O)(=O)c2ccc(F)cc2)cc1 [Example 5, 4′-(p-fluorobenzenesulfonylamino)-4-hydroxychalcone]
IC50 (β-amylase): 127 µM
IC50 α-amylase (α-amylase): NI^a (NI denotes the cases where the inhibitory rates were below 20% measured when the concentration of the chalcone derivatives was 200 μM or means that there were no inhibitory activities for α-, or β-amylases)
IC50 (B-16 melanoma [1]): 23.7 µM

SMILES: Nc1ccc(C(=O)/C=C/c2ccc(O)cc2)cc1 [Example 8, 4′-amino-4-hydroxychalcone]
IC50 β-amylase (β-amylase): NI (NI denotes the cases where the inhibitory rates were below 20% measured when the concentration of the chalcone derivatives was 200 μM or means that there were no inhibitory activities for α-, or β-amylases)
IC50 (α-amylase): 269 µM
IC50 (B-16 melanoma [1]): 12.5 µM

IC50 (B-16 melanoma [1]): 92 µM
SMILES: OC[C@H]1O[C@@H](Oc2ccc(O)cc2)[C@H](O)[C@@H](O)[C@@H]1O [Albutin, albutin, reference compound]

SMILES: Nc1cccc(C(=O)/C=C/c2ccc(O)cc2)c1 [Example 13, 3′-amino-4-hydroxychalcone]
cytotoxicity of the compounds (B-16 melanoma [2]): ND (ND denotes the cases where the experiments on the melanin synthesis inhibitory activities in B-16 melanoma were not performed since the cytotoxicity of the compounds was shown as more than 50%)

IC50 (B-16 melanoma [1]): 25.6 µM
SMILES: Cc1ccc(S(=O)(=O)Nc2cccc(C(=O)/C=C/c3ccc(O)cc3)c2)cc1 [Example 14, 3′-(p-toluenesulfonylamino)-4-hydroxychalcone]

SMILES: O=C(/C=C/c1ccc(O)c(O)c1)c1ccc(NS(=O)(=O)c2ccc([N+](=O)[O-])cc2)cc1 [Example 10, 4′-(p-nitrobenzenesulfonylamino)-3,4-dihydroxychalcone]
IC50 (β-amylase): 201 µM
IC50 (α-amylase): 37.3 µM

SMILES: CS(=O)(=O)Nc1ccc(C(=O)/C=C/c2ccc(O)cc2)cc1 [Example 6, 4′-(methanesulfonylamino)-4-hydroxychalcone]
IC50 (β-amylase): 65 µM
IC50 (α-amylase): 194 µM
IC50 (B-16 melanoma [1]): 20.3 µM

SMILES: O=C(/C=C/c1ccc(O)c(O)c1)c1ccc(NS(=O)(=O)c2ccccc2)cc1 [Example 9, 4′-benzenesulfonylamino-3,4-dihydroxychalcone]
IC50 (β-amylase): 206 µM
IC50 α-amylase (α-amylase): NI (NI denotes the cases where the inhibitory rates were below 20% measured when the concentration of the chalcone derivatives was 200 μM or means that there were no inhibitory activities for α-, or β-amylases)

SMILES: O=C(/C=C/c1ccc(O)cc1)c1ccccc1 [Example 17, 4-hydroxychalcone]
cytotoxicity of the compounds (B-16 melanoma [2]): ND (ND denotes the cases where the experiments on the melanin synthesis inhibitory activities in B-16 melanoma were not performed since the cytotoxicity of the compounds was shown as more than 50%)
